According to the NIST ThermoML archive (doi:10.1016/j.tca.2006.08.007):
± gives the expanded uncertainty stated by the source.

What was measured:
[1] = 293.15 K; 101.33 kPa; Liquid; Vibrating tube method
[2] = refractive index (Na D-line) (dimensionless); settings: 293.15 K; 101.33 kPa; Liquid; refractometer

Structure (SMILES)	mass density [1]	refractive index [2]
CC#N [acetonitrile]	782.5 ± 0.2 kg/m3	1.3442 ± 0.0001
CCCCCCO [hexan-1-ol]	818.7 ± 0.3 kg/m3	1.418 ± 0.0002
CCCCCO [pentan-1-ol]	815.1 ± 0.5 kg/m3	1.4098 ± 0.0003
